Results as given in US20080280849A1, “Synergic Combinations Comprising a Quinoline Compound and Other Hiv Infection Therapeutic Agents” (priority 2005, published 2008).
Read-outs that look alike come from different tables or passages of the source. Each block holds one compound with its values, some of them ahead of it.

Tested on: NL43 HIV-1 laboratory strain
Experiment: NL43 HIV-1 laboratory strain replication assay with HelaCD4+β-Gal indicator cells (P4 cells), CPRG development, CalcuSyn analysis
Assay type: cell-based
Experimental: Synergistic interactions between quinoline compounds (BA011FZ041) and either RT (zidovudine and nevirapine) or other integrase inhibitors (L-731,988) were investigated using a NL43 HIV-1 laboratory strain replication assay. Virus infectivity in the presence of inhibitors was monitored with HelaCD4+β-Gal indicator cells (P4 cells). Inhibition by combination of BA011FZ041 and other inhibitors was evaluated at three fixed molar BA011FZ041/Inhibitor ratios: 1:1, 1:2, and 2:1. Three independent experiments with triplicate data points were performed for each ratio. Interactions were calculated by the multiple drug effect equation of Chou and Talalay (Chou and Talalay, 1983; and Chou and Talalay, 1984) based on the median effect principle, using CalcuSyn® software (Biosoft, UK).
On the day prior to the test, 5,000 HeLaP4 cells per well are seeded in 100 μl of 10% FBS DMEM supplemented with […] penicillin, 100 μg/ml streptomycin and 0.5 mg/ml geniticin (G418). Otherwise, in the morning of the test, 10,000 HeLaP4 cells are seeded per well in 100 μl of 10% FBS DMEM supplemented with […] penicillin, 100 μg/ml streptomycin and 0.5 mg/ml geniticin (G418).
One plate of cells is used for the 2 drugs alone+half a plate per ratio tested is used for development with CPRG and, as necessary, an equivalent number of plates for the MTT toxicity test.
Several drug-drug ratios are tested: 1:1, 1:2, 2:1, 1:4 and 4:1.
Ratios are expressed relative to IC50 values. For the 1:1 ratio, the IC50 concentration for (BA011FZ041+drug X) is the IC50 concentration for BA011FZ041+the IC50 concentration for drug X.
For the 1:2 ratio, the IC50 concentration for (BA011FZ041+drug X) is the IC50 concentration for BA011FZ041+twice the IC50 concentration for drug X.
The form of BA011FZ041 tested is the sodium carbonate salt.
Further dilutions are also performed using PBS and are then distributed at 5 μl per well. • For DMSO: the molecules are resuspended at a concentration 200-fold higher than that finally required in the well so that DMSO be non toxic for the HeLa P4 cells. The quantity of DMSO is constant for each drug concentration tested.
In practice, initial dilutions are performed using DMSO, with these solutions then being rediluted fivefold in PBS or culture medium so as to obtain concentrations 40-fold higher than those finally required in the well. The solutions are then distributed at 5 μl per well.
Prior to infection, the wells are filled up to a final volume of 200 μl with 40 or 45 μl of medium.
NL4.3 viral supernatant has been produced by CaCl2 transfection of 293T cells. The HeLa P4 cells are infected with NL 4.3 HIV virus, with about 1 to 2 ng of P24 per well.
Depending on the P24 content of the virus used, a virus solution+10% FBS DMEM supplemented with […] penicillin, 100 μg/ml streptomycin and 0.5 mg/ml geniticin (G418) is prepared and is then distributed at 50 μl per well.
The plates are incubated at 37° C., 5% CO2, for 60 hours.
The CPRG (chlorophenol red-β-D-galactopyranoside) test is a […] test enabling measurement of the quantity of β-galactosidase produced during viral infection (the β-gal gene is under the control of the TAR element which in turn is controlled by the viral. TAT).
The supernatant is removed from the plates of HelaP4 cells. 100 μl of CPRG lysis buffer is added per well (for 110 wells: Na2HPO4 (0.5M) 1687 μL, NaH2PO4 (1M) 440 μL, KCl (1M) 110 μL, MgSO4 (1M) 220 μL, EDTA (0.5M) 55 μL, β-mercaptoethanol 39 μL, NP40 14 μL, water 8617 μL).
The cells are incubated for 10 minutes at 37° C. in order to obtain full cell lysis. The lysed wells are homogenized and 50 μl of each lysate is transferred into the corresponding well of another plate containing 100 μl reaction buffer (for 110 wells: pH 7.4 phosphate buffer (1M) 880 μL, MgCl2 99 μL, β-mercaptoethanol 77 μL, water 8140 μL, CPRG (250 mg of CPRG dissolved in 9.1 ml of Millipore water+455 μl pH 7.4 sodium phosphate buffer) 1833 μL).

IC50 (Human immunodeficiency virus 1, NL43, Table 6, Ratio 1:1 series, drug alone, Mean, read-out: IC50 Nev, drug alone): 39 nM
IC50 (Human immunodeficiency virus 1, NL43, Table 6, Ratio 1:2 series, drug alone, Mean, read-out: IC50 Nev, drug alone): 41 nM
IC50 (Human immunodeficiency virus 1, NL43, Table 6, Ratio 2:1 series, drug alone, Mean, read-out: IC50 Nev, drug alone): 39 nM
IC50 (Human immunodeficiency virus 1, NL43, in the mix with FZ41, Ratio 1:1, Mean, read-out: IC50 Nev, in the mix): 11 nM
IC50 (Human immunodeficiency virus 1, NL43, in the mix with FZ41, Ratio 1:2, Mean, read-out: IC50 Nev, in the mix): 18 nM
IC50 (Human immunodeficiency virus 1, NL43, in the mix with FZ41, Ratio 2:1, Mean, read-out: IC50 Nev, in the mix): 6.3 nM
SMILES: Cc1ccnc2c1NC(=O)c1cccnc1N2C1CC1 [Nev]

IC50 (Human immunodeficiency virus 1, NL43, Table 8, Ratio 1:1 series, drug alone, Mean, read-out: IC50 ZVD, drug alone): 29 nM
IC50 (Human immunodeficiency virus 1, NL43, Table 8, Ratio 1:2 series, drug alone, Mean, read-out: IC50 ZVD, drug alone): 46 nM
IC50 (Human immunodeficiency virus 1, NL43, Table 8, Ratio 2:1 series, drug alone, Mean, read-out: IC50 ZVD, drug alone): 44 nM
IC50 (Human immunodeficiency virus 1, NL43, in the mix with FZ41, Ratio 1:1, Mean, read-out: IC50 ZVD, in the mix): 16 nM
IC50 (Human immunodeficiency virus 1, NL43, in the mix with FZ41, Ratio 1:2, Mean, read-out: IC50 ZVD, in the mix): 28 nM
IC50 (Human immunodeficiency virus 1, NL43, in the mix with FZ41, Ratio 2:1, Mean, read-out: IC50 ZVD, in the mix): 11 nM
SMILES: Cc1cn([C@H]2C[C@H](N=[N+]=[N-])[C@@H](CO)O2)c(=O)[nH]c1=O [ZVD, 3′-azido-3′-deoxythymidine]

IC50 (Table 6, Ratio 1:1 series with Nev, drug alone, Mean, read-out: IC50 FZ41, drug alone): 1600 nM
IC50 (Table 6, Ratio 1:2 series with Nev, drug alone, Mean, read-out: IC50 FZ4, drug alone): 1500 nM
IC50 (Table 6, Ratio 2:1 series with Nev, drug alone, Mean, read-out: IC50 FZ41, drug alone): 1500 nM
IC50 (Table 8, Ratio 1:1 series with ZVD, drug alone, Mean, read-out: IC50 FZ41, drug alone): 1400 nM
IC50 (Table 8, Ratio 1:2 series with ZVD, drug alone, Mean, read-out: IC50 FZ41, drug alone): 1700 nM
IC50 (Table 8, Ratio 2:1 series with ZVD, drug alone, Mean, read-out: IC50 FZ41, drug alone): 1700 nM
IC50 (Table 10, Ratio 1:1 series with L-731,988, drug alone, Mean, read-out: IC50 FZ41, drug alone): 1300 nM
IC50 (Table 10, Ratio 1:2 series with L-731,988, drug alone, Mean, read-out: IC50 FZ41, drug alone): 1300 nM
IC50 (Table 10, Ratio 2:1 series with L-731,988, drug alone, Mean, read-out: IC50 FZ41, drug alone): 1300 nM
IC50 (in the mix with L-731,988, Ratio 1:1, Mean, read-out: IC50 FZ41, in the mix): 900 nM
IC50 (in the mix with L-731,988, Ratio 1:2, Mean, read-out: IC50 FZ41, in the mix): 800 nM
IC50 (in the mix with L-731,988, Ratio 2:1, Mean, read-out: IC50 FZ41, in the mix): 1100 nM
IC50 (in the mix with Nev, Ratio 1:1, Mean, read-out: IC50 FZ41, in the mix): 1100 nM
IC50 (in the mix with Nev, Ratio 1:2, Mean, read-out: IC50 FZ4, in the mix): 900 nM
IC50 (in the mix with Nev, Ratio 2:1, Mean, read-out: IC50 FZ41, in the mix): 1200 nM
IC50 (in the mix with ZVD, Ratio 1:1, Mean, read-out: IC50 FZ41, in the mix): 800 nM
IC50 (in the mix with ZVD, Ratio 1:2, Mean, read-out: IC50 FZ41, in the mix): 700 nM
IC50 (in the mix with ZVD, Ratio 2:1, Mean, read-out: IC50 FZ41, in the mix): 1100 nM
SMILES: COc1cc(C=Cc2ccc3ccc(C(=O)O)c(O)c3n2)cc(O)c1O [BA011FZ041, 8-hydroxy-2-[2-[(3,4-dihydroxy-5-methoxy-phenyl)ethenyl]]7-quinoline carboxylic acid]

IC50 (Human immunodeficiency virus 1, NL43, Table 10, Ratio 1:1 series, drug alone, Mean, read-out: IC50 L-731,988, drug alone): 1500 nM
IC50 (Human immunodeficiency virus 1, NL43, Table 10, Ratio 1:2 series, drug alone, Mean, read-out: IC50 L-731,988, drug alone): 1500 nM
IC50 (Human immunodeficiency virus 1, NL43, Table 10, Ratio 2:1 series, drug alone, Mean, read-out: IC50 L-731,988, drug alone): 1500 nM
IC50 (Human immunodeficiency virus 1, NL43, in the mix with FZ41, Ratio 1:1, Mean, read-out: IC50 L-731,988, in the mix): 300 nM
IC50 (Human immunodeficiency virus 1, NL43, in the mix with FZ41, Ratio 1:2, Mean, read-out: IC50 L-731,988, in the mix): 500 nM
IC50 (Human immunodeficiency virus 1, NL43, in the mix with FZ41, Ratio 2:1, Mean, read-out: IC50 L-731,988, in the mix): 200 nM
SMILES: O=C(O)C(=O)CC(=O)c1cccn1Cc1ccc(F)cc1 [L-731,988, 4-[1-(4-fluorobenzyl)pyrrole-2-yl]-2,4-diketobutanoic acid]
